# Compound: CC1=CC(=C(N1C2=CC=C(C=C2)Cl)C)C(=O)CN3CCCCC3 [IU1-47] + C[C@]1(O)C[C@@H](c2nc(-c3ccc4ccc(-c5ccccc5)nc4c3)c3c(N)nccn32)C1 [Linsitinib] (partner 1 µM)
# Experiment: relative viability (nuclei count vs DMSO), 5 days (fraction); higher = more cells survive
# Settings: first compound 0.08 µM
# Outline: (§1)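 Lung cancer cell lines were pin-tool dosed in 1536-well plates on the day after seeding, with either a lone drug or a fixed anchor-drug dose plus five library-drug doses (not always all listed) in √10 steps. Nuclei were counted on 4× images after 5 days. Relative viability is the ratio of treated-well to vehicle-well nuclei counts, with each value a median of duplicate plates.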
row,Cell Line,relative viability
1,NCI-H1703,0.516
2,NCI-H1993,0.762
3,SW 1573,0.942
4,NCI-H838,1.07
5,LCLC-103H,1.07
6,NCI-H520,0.849
7,NCI-H2126,0.733
8,EMC-BAC-2,0.857
9,NCI-H2085,0.828
10,Calu-6,1.09
11,HCC-366,0.698
12,NCI-H1666,0.759
13,NCI-H596,1.17
14,LK-2,0.742
15,NCI-H2087,0.947
16,SK-MES-1,1.13
17,H3255,1.16
18,COR-L23,0.943
19,COR-L 105,1.02
20,IA-LM,0.526
21,LOU-NH91,1.07
22,NCI-H2405,1.02
23,HOP-62,0.98
24,HCC-44,0.668
25,A549,0.548
26,LU99A,0.538
27,NCI-H441,0.703
28,NCI-H1395,1.04
29,NCI-H1299,0.943
30,NCI-H1793,0.822

# Same assay, conditions: first compound 0.253 µM
row,Cell Line,relative viability
1,EBC-1,0.888
2,NCI-H1703,0.707
3,NCI-H1993,0.732
4,SW 1573,0.674
5,NCI-H838,1.07
6,LCLC-103H,1.07
7,NCI-H520,1.13
8,NCI-H2126,0.76
9,EMC-BAC-2,0.829
10,NCI-H2085,0.917
11,Calu-6,0.918
12,HCC-366,0.643
13,NCI-H1666,0.775
14,NCI-H596,1.11
15,LK-2,0.697
16,NCI-H2087,0.953

row,Cell Line,relative viability
1,SK-MES-1,1.31
2,H3255,1.17
3,COR-L23,1
4,COR-L 105,0.875
5,IA-LM,0.407
6,LOU-NH91,1.06
7,NCI-H2405,1.1
8,HOP-62,1.04
9,HCC-44,0.662
10,A549,0.691
11,LU99A,0.511
12,NCI-H441,0.49
13,NCI-H1395,1.07
14,NCI-H1299,0.951
15,NCI-H1793,0.868

# Same assay, conditions: first compound 0.8 µM
row,Cell Line,relative viability
1,NCI-H727,0.274
2,EBC-1,0.925
3,NCI-H1703,0.416
4,NCI-H1993,0.749
5,SW 1573,0.694
6,NCI-H838,1.12
7,LCLC-103H,1.18
8,NCI-H520,0.934
9,NCI-H2126,0.74
10,EMC-BAC-2,0.841
11,NCI-H2085,1.06
12,Calu-6,1.02
13,HCC-366,0.951
14,NCI-H1666,0.773
15,NCI-H596,1.02
16,LK-2,0.592

row,Cell Line,relative viability
1,NCI-H2087,0.93
2,SK-MES-1,1.12
3,H3255,0.957
4,COR-L23,0.943
5,COR-L 105,1.08
6,IA-LM,0.655
7,LOU-NH91,0.939
8,NCI-H2405,1.01
9,HOP-62,0.805
10,HCC-44,0.649
11,A549,0.608
12,LU99A,0.656
13,NCI-H441,0.594
14,NCI-H1395,0.978
15,NCI-H1299,1.05
16,NCI-H1793,0.976

# Same assay, conditions: first compound 2.53 µM
row,Cell Line,relative viability
1,NCI-H727,0.221
2,EBC-1,0.964
3,NCI-H1703,0.671
4,NCI-H1993,0.76
5,SW 1573,0.746
6,NCI-H838,1.09
7,LCLC-103H,1.07
8,NCI-H520,0.974
9,NCI-H2126,0.531
10,EMC-BAC-2,0.864
11,NCI-H2085,0.912
12,Calu-6,0.986
13,NCI-H1666,0.708
14,NCI-H596,0.984
15,LK-2,0.335
16,NCI-H2087,1.14
17,SK-MES-1,1.01
18,H3255,0.905
19,COR-L23,0.899
20,COR-L 105,1.03
21,IA-LM,0.741
22,LOU-NH91,0.907
23,HOP-62,0.677
24,HCC-44,0.664
25,LU99A,0.602
26,NCI-H441,0.438
27,NCI-H1299,1.01

# Same assay, conditions: first compound 8 µM
row,Cell Line,relative viability
1,NCI-H727,0.269
2,EBC-1,0.881
3,NCI-H1703,0.886
4,NCI-H1993,0.73
5,SW 1573,0.843
6,NCI-H838,1.07
7,LCLC-103H,1.3
8,NCI-H520,0.666
9,NCI-H2126,0.778
10,EMC-BAC-2,0.774
11,NCI-H2085,0.846
12,Calu-6,0.918
13,HCC-366,0.567
14,NCI-H1666,0.757
15,NCI-H596,0.934
16,LK-2,0.416

row,Cell Line,relative viability
1,NCI-H2087,1
2,SK-MES-1,1.11
3,H3255,0.914
4,COR-L23,0.982
5,COR-L 105,0.89
6,IA-LM,0.604
7,LOU-NH91,0.868
8,NCI-H2405,0.932
9,HOP-62,0.886
10,HCC-44,0.572
11,A549,0.553
12,LU99A,0.54
13,NCI-H441,0.44
14,NCI-H1395,0.987
15,NCI-H1299,0.975
16,NCI-H1793,0.689

# Compound: Cc1nc(C(=O)NCC(=O)O)c(O)c2ccc(Oc3ccccc3)cc12 [FG-4592] + COc1cccc2cc(-c3nc([C@H]4CC[C@H](C(=O)O)CC4)n4ncnc(N)c34)[nH]c12 [OSI-027] (partner 0.5 µM)
# Experiment: as above
# Settings: first compound 0.08 µM
# Outline: as §1
row,Cell Line,relative viability
1,NCI-H522,0.739
2,NCI-H1623,0.447
3,NCI-H727,0.41
4,NCI-H1650,0.523
5,NCI-H1993,0.508
6,SW 1573,0.556
7,NCI-H838,0.372
8,LCLC-103H,0.445
9,NCI-H520,0.234
10,NCI-H2126,0.806
11,EMC-BAC-2,0.338
12,NCI-H2085,0.788
13,HCC-366,0.455
14,NCI-H1666,0.809
15,NCI-H596,0.595
16,LK-2,0.185
17,NCI-H2087,0.559

row,Cell Line,relative viability
1,NCI-H2342,0.594
2,SK-MES-1,0.568
3,H3255,0.573
4,COR-L23,0.798
5,COR-L 105,0.555
6,LOU-NH91,0.722
7,ChaGo-K-1,0.577
8,NCI-H2170,0.788
9,NCI-H2405,0.506
10,HOP-62,0.839
11,HCC-44,0.504
12,SW 900,0.424
13,LU99A,0.332
14,NCI-H1648,0.275
15,NCI-H441,0.589
16,NCI-H1395,0.593
17,NCI-H1793,0.223

# Same assay, conditions: first compound 0.253 µM
row,Cell Line,relative viability
1,NCI-H522,0.738
2,NCI-H1623,0.447
3,NCI-H727,0.46
4,NCI-H1650,0.603
5,NCI-H1993,0.504
6,SW 1573,0.537
7,NCI-H838,0.31
8,LCLC-103H,0.45
9,NCI-H520,0.285
10,NCI-H2126,0.627
11,EMC-BAC-2,0.407
12,NCI-H2085,0.735
13,HCC-366,0.934
14,NCI-H1666,0.803
15,NCI-H596,0.634
16,LK-2,0.19
17,NCI-H2087,0.538

row,Cell Line,relative viability
1,NCI-H2342,0.648
2,SK-MES-1,0.585
3,H3255,0.576
4,COR-L23,0.617
5,COR-L 105,0.602
6,LOU-NH91,0.399
7,ChaGo-K-1,0.545
8,NCI-H2170,0.66
9,HOP-62,0.736
10,HCC-44,0.489
11,SW 900,0.546
12,LU99A,0.276
13,NCI-H1648,0.285
14,NCI-H441,0.537
15,NCI-H1395,0.644
16,NCI-H1793,0.229

# Same assay, conditions: first compound 0.8 µM
row,Cell Line,relative viability
1,NCI-H522,0.727
2,NCI-H1623,0.468
3,NCI-H727,0.596
4,NCI-H1650,0.839
5,NCI-H1993,0.546
6,SW 1573,0.63
7,NCI-H838,0.389
8,LCLC-103H,0.455
9,NCI-H520,0.286
10,NCI-H2126,0.663
11,EMC-BAC-2,0.339
12,NCI-H2085,0.648
13,HCC-366,0.784
14,NCI-H1666,0.837
15,NCI-H596,0.513
16,LK-2,0.223

row,Cell Line,relative viability
1,NCI-H2087,0.669
2,NCI-H2342,0.631
3,SK-MES-1,0.546
4,H3255,0.626
5,COR-L23,0.793
6,COR-L 105,0.767
7,LOU-NH91,0.753
8,ChaGo-K-1,0.532
9,NCI-H2170,0.652
10,NCI-H2405,0.586
11,HOP-62,0.814
12,SW 900,0.493
13,LU99A,0.296
14,NCI-H1648,0.302
15,NCI-H441,0.621
16,NCI-H1395,0.56

# Same assay, conditions: first compound 2.53 µM
row,Cell Line,relative viability
1,NCI-H522,0.594
2,NCI-H1623,0.416
3,NCI-H727,0.524
4,NCI-H1650,0.621
5,NCI-H1993,0.512
6,SW 1573,0.536
7,NCI-H838,0.289
8,LCLC-103H,0.421
9,NCI-H520,0.257
10,NCI-H2126,0.623
11,EMC-BAC-2,0.333
12,NCI-H2085,0.519
13,HCC-366,0.484
14,NCI-H1666,0.775
15,NCI-H596,0.431
16,LK-2,0.185
17,NCI-H2087,0.473

row,Cell Line,relative viability
1,NCI-H2342,0.585
2,SK-MES-1,0.483
3,H3255,0.617
4,COR-L23,0.701
5,COR-L 105,0.551
6,LOU-NH91,0.666
7,ChaGo-K-1,0.471
8,NCI-H2170,0.693
9,NCI-H2405,0.518
10,HOP-62,0.722
11,HCC-44,0.476
12,SW 900,0.491
13,LU99A,0.267
14,NCI-H1648,0.258
15,NCI-H441,0.465
16,NCI-H1395,0.612
17,NCI-H1793,0.178

# Same assay, conditions: first compound 8 µM
row,Cell Line,relative viability
1,NCI-H522,0.574
2,NCI-H1623,0.419
3,NCI-H727,0.593
4,NCI-H1650,0.634
5,NCI-H1993,0.559
6,SW 1573,0.561
7,NCI-H838,0.357
8,LCLC-103H,0.373
9,NCI-H520,0.205
10,NCI-H2126,0.67
11,EMC-BAC-2,0.344
12,NCI-H2085,0.652
13,HCC-366,0.703
14,NCI-H1666,0.621
15,NCI-H596,0.434
16,LK-2,0.174
17,NCI-H2087,0.486

row,Cell Line,relative viability
1,NCI-H2342,0.57
2,SK-MES-1,0.453
3,H3255,0.62
4,COR-L23,0.468
5,COR-L 105,0.435
6,LOU-NH91,0.687
7,ChaGo-K-1,0.413
8,NCI-H2170,0.531
9,NCI-H2405,0.628
10,HOP-62,0.713
11,HCC-44,0.377
12,SW 900,0.534
13,LU99A,0.27
14,NCI-H1648,0.28
15,NCI-H441,0.563
16,NCI-H1395,0.549
17,NCI-H1793,0.254
